Assay results published in US10214531B2 (Institute for Drug Discovery, LLC, priority 2013, dated 2019).
Counter-ions that a name gives are not always drawn.

Target: recombinant human AMCase (Homo sapiens, UniProt Q9BZP6)
Assay: Human AMCase Activity Assay
Assay type: biochemical
Details: recombinant hAMCase, 4-methylumbelliferyl chitobioside substrate, citrate buffer pH 5.2, 37° C., 60 minutes; read-out: Activity (IC50 value key)
Method: Human AMCase Activity Assay
The assay was run in the 96-well plate format, each reaction in the total volume of 100 μl. 4-Methylumbelliferyl B-D-N,N′ diacetylchitobioside hydrate was used as a substrate for the enzyme. Upon hydrolysis by AMCase, the substrate releases 4-methylumbelliferyl (4MU), when ionized in basic pH, emits fluorescence of 460 nm.
Briefly, 40 μl of a substrate was added to each well, followed by 10 μl of compound dilution and 50 μl of hAMCase recombinant enzyme solution. The reaction was carried out in citrate buffer, pH 5.2, in the dark, at 37° C. for 60 minutes with shaking.

Sequence of recombinant human AMCase (Q9BZP6 22-476): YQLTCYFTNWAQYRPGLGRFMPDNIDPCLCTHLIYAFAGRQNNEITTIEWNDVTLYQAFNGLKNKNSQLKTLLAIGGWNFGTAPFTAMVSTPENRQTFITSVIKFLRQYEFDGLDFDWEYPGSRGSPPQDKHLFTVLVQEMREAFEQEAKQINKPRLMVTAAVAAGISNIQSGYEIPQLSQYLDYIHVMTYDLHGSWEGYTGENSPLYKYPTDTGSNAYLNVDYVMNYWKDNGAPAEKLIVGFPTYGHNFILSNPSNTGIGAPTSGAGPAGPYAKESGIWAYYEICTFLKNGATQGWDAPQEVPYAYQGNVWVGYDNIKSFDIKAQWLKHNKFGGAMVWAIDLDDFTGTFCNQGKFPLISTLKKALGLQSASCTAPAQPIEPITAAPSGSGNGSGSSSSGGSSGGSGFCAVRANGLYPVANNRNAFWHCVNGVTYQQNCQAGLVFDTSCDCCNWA

IC50 [µM] | Compound
0.1 to 1 | CN(CCc1cccc(C(F)(F)F)c1)C1CCN(c2nc(N)n[nH]2)CC1 [Example 180, 1-(3-amino-1H-1,2,4-triazol-5-yl)-N-methyl-N-(3-(trifluoromethyl)phenethyl)piperidin-4-amine]
0.1 to 1 | CCN(C1CCN(c2nc(N)n[nH]2)CC1)S(=O)(=O)Cc1cccc(Cl)c1 [Example 238, N-(1-(3-amino-1H-1,2,4-triazol-5-yl)piperidin-4-yl)-1-(3-chlorophenyl)-N-ethylmethanesulfonamide]
< 0.1 | Nc1n[nH]c(N2CCC(N(CCc3ccc(Cl)cc3)Cc3ccc(F)c4ccccc34)CC2)n1 [Example 144, 1-(3-amino-1H-1,2,4-triazol-5-yl)-N-(4-chlorophenethyl)-N-((4-fluoronaphthalen-1-yl)methyl)piperidin-4-amine]
< 0.1 | Nc1n[nH]c(N2CCC3C(CCCN3CCc3ccc(Br)cc3)C2)n1 (centres unmarked) [Example 253, 5-(1-(4-bromophenethyl)octahydro-1,6-naphthyridin-6(2H)-yl)-1H-1,2,4-triazol-3-amine dihydrochloride]
> 100 | Cc1cccc(C(=O)NCC2CCN(c3nc(N)n[nH]3)CC2)c1C [Example 210, N-((1-(3-amino-1H-1,2,4-triazol-5-yl)piperidin-4-yl)methyl)-2,3-dimethylbenzamide]
10 to 100 | CC(C)c1ccccc1OCCN1CCN(c2nc(N)n[nH]2)CC1 [Example 84, 5-(4-(2-(2-isopropylphenoxy)ethyl)piperazin-1-yl)-1H-1,2,4-triazol-3-amine]
> 100 | C[C@@H](Oc1ccc(Br)cc1)C(=O)N1CCN(c2nc(N)n[nH]2)CC1 [Example 6, (R)-1-(4-(3-amino-1H-1,2,4-triazol-5-yl)piperazin-1-yl)-2-(4-bromophenoxy)propan-1-one]
> 100 | C[C@H](Oc1ccc(Cl)cc1)C(=O)N1CCN(c2nc(N)n[nH]2)CC1 [Example 10, (S)-1-(4-(3-amino-1H-1,2,4-triazol-5-yl)piperazin-1-yl)-2-(4-chlorophenoxy)propan-1-one]
1 to 10 | Nc1n[nH]c(N2CCN(CCCc3ccc(C(F)(F)F)cc3)C(CCCO)C2)n1 (centres unmarked) [Example 223, 3-(4-(3-amino-1H-1,2,4-triazol-5-yl)-1-(3-(4-(trifluoromethyl)phenyl)propyl)piperazin-2-yl)propan-1-ol]
> 100 | Nc1n[nH]c(N2CCN(C(=O)[C@@H](N)Cc3ccccc3Cl)CC2)n1 [Example 75-2, (S)-2-amino-1-(4-(3-amino-1H-1,2,4-triazol-5-yl)piperazin-1-yl)-3-(2-chlorophenyl)propan-1-one dihydrochloride]
> 100 | Nc1n[nH]c(N2CCC(C(=O)NCc3ccc(F)cc3C(F)(F)F)CC2)n1 [Example 50, 1-(3-amino-1H-1,2,4-triazol-5-yl)-N-(4-fluoro-2-(trifluoromethyl)benzyl)piperidine-4-carboxamide]
0.1 to 1 | CC1CN(c2nc(N)n[nH]2)CCC1NCCc1ccc(Cl)cc1 (mixture of isomers) [Example 132, 1-(3-amino-1H-1,2,4-triazol-5-yl)-N-(4-chlorophenethyl)-3-methylpiperidin-4-amine dihydrochloride (4:1 diastereoisomeric mixture)]
< 0.1 | C[C@H](c1ccccc1)N(CCc1ccc(Cl)cc1)C1CCN(c2nc(N)n[nH]2)CC1 [Example 118, (R)-1-(3-amino-1H-1,2,4-triazol-5-yl)-N-(4-chlorophenethyl)-N-(1-phenylethyl)piperidin-4-amine]
< 0.1 | Nc1n[nH]c(N2CCC(N(CCc3ccc(Br)cc3)Cc3cccc4ccncc34)CC2)n1 [Example 105, 1-(3-amino-1H-1,2,4-triazol-5-yl)-N-(4-bromophenethyl)-N-(isoquinolin-8-ylmethyl) piperidin-4-amine]
> 100 | Cc1ccc(OC(C)C(=O)N2CCN(c3nc(N)n[nH]3)CC2)c(Cl)c1 (centres unmarked) [Example 45, 1-(4-(3-amino-1H-1,2,4-triazol-5-yl)piperazin-1-yl)-2-(2-chloro-4-methylphenoxy)propan-1-one]
< 0.1 | Nc1n[nH]c(N2CCC(N(CCc3ccc(Cl)cc3)Cc3ccccc3Br)CC2)n1 [Example 127, 1-(3-amino-1H-1,2,4-triazol-5-yl)-N-(2-bromobenzyl)-N-(4-chlorophenethyl)piperidin-4-amine]
> 100 | COc1ccccc1CNC(=O)C1CCN(c2nc(N)n[nH]2)CC1 [Example 197, 1-(3-amino-1H-1,2,4-triazol-5-yl)-N-(2-methoxybenzyl)piperidine-4-carboxamide]
10 to 100 | COc1ccc(OCCN2CCN(c3nc(N)n[nH]3)CC2)cc1 [Example 81, 5-(4-(2-(4-methoxyphenoxy)ethyl)piperazin-1-yl)-1H-1,2,4-triazol-3-amine]
> 100 | Cc1ccc(C)c(OC(C)C(=O)N2CCN(c3nc(N)n[nH]3)CC2)c1 (centres unmarked) [Example 34, 1-(4-(3-amino-1H-1,2,4-triazol-5-yl)piperazin-1-yl)-2-(2,5-dimethylphenoxy)propan-1-one]
> 100 | Nc1n[nH]c(N2CCN(CCOc3ccccc3)CC2)n1 [Example 78, 5-(4-(2-phenoxyethyl)piperazin-1-yl)-1H-1,2,4-triazol-3-amine]
> 100 | C[C@H](Oc1ccc(Br)cc1)C(=O)N1CCN(c2nc(N)n[nH]2)CC1 [Example 7, (S)-1-(4-(3-amino-1H-1,2,4-triazol-5-yl)piperazin-1-yl)-2-(4-bromophenoxy)-propan-1-one]
1 to 10 | Nc1n[nH]c(N2CCC(NS(=O)(=O)Cc3cccc(C(F)(F)F)c3)CC2)n1 [Example 192, N-(1-(3-amino-1H-1,2,4-triazol-5-yl)piperidin-4-yl)-1-(3-(trifluoromethyl)phenyl)methanesulfonamide]
10 to 100 | Nc1n[nH]c(N2CCN(CCCc3ccc(Cl)cc3)C(CO)C2)n1 (centres unmarked) [Example 66, (4-(3-amino-1H-1,2,4-triazol-5-yl)-1-(3-(4-chlorophenyl)propyl)piperazin-2-yl)methanol]
> 100 | Nc1n[nH]c(N2CCC(c3nc(-c4ccc5c(c4)OCO5)no3)CC2)n1 [Example 41, 5-(4-(3-(benzo[d][1,3]dioxol-5-yl)-1,2,4-oxadiazol-5-yl)piperidin-1-yl)-1H-1,2,4-triazol-3-amine]
> 100 | Nc1n[nH]c(N2CCN(CCOc3ccccc3C(F)(F)F)CC2)n1 [Example 193, 5-(4-(2-(2-(trifluoromethyl)-phenoxy)ethyl)piperazin-1-yl)-1H-1,2,4-triazol-3-amine]
> 100 | CC1(C(=O)NCc2ccc(Cl)cc2)CCN(c2nc(N)n[nH]2)CC1 [Example 235, 1-(3-amino-1H-1,2,4-triazol-5-yl)-N-(4-chlorobenzyl)-4-methylpiperidine-4-carboxamide]
> 100 | Nc1n[nH]c(N2CCC(C(=O)NCc3ccccc3Br)CC2)n1 [Example 53, 1-(3-amino-1H-1,2,4-triazol-5-yl)-N-(2-bromobenzyl)piperidine-4-carboxamide]
0.1 to 1 | C[C@@H](c1ccccc1)N(CCc1ccc(Cl)cc1)C1CCN(c2nc(N)n[nH]2)CC1 [Example 103, (S)-1-(3-amino-1H-1,2,4-triazol-5-yl)-N-(4-chlorophenethyl)-N-(1-phenylethyl) piperidin-4-amine]
10 to 100 | Nc1n[nH]c(N2CCN(CCOc3c(Cl)cccc3Cl)CC2)n1 [Example 194, 5-(4-(2-(2,6-dichlorophenoxy)ethyl)piperazin-1-yl)-1H-1,2,4-triazol-3-amine]
